According to patent US20250320224A1 (DOMAIN THERAPEUTICS, priority 2022, published 2025):

Target: T1, human PAR-2 (hPAR-2) receptor (Homo sapiens, UniProt P55085)
T1 construct: expressed in HEK-293 cells in an endogenous manner; endogenous in cells; host or cells: HEK-293
T1 sequence (P55085 26-397): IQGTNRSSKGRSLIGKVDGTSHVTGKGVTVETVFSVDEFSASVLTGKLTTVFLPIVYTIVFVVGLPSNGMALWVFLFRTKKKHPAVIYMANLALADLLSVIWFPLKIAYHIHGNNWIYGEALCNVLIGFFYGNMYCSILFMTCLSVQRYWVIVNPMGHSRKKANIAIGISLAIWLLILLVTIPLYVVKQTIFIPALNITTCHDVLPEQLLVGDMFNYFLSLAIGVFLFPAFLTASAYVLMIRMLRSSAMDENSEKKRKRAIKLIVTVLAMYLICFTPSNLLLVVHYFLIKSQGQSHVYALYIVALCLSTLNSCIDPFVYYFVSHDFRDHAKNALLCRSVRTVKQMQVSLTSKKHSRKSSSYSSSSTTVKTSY
Experiment: In vitro human PAR-2 functional antagonist activity using calcium assays
Type: cell-based
Details: hPAR-2 endogenously expressed in HEK-293 cells; stimulated by 2-Furoyl-LIGRLO-NH2 peptide; Fluo4AM intracellular calcium, FLIPR Tetra
Summary of the method: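 HEK-293 cells with endogenous hPAR-2 were loaded with Fluo4AM and read for intracellular Ca2+ on FLIPR. After 10 min with compound alone, cells were stimulated with 2-Furoyl-LIGRLO-NH2 at the concentration giving 80% of maximal response. Inhibition was then recorded over 5 min relative to buffer and agonist-only signals.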

Row | Structure (SMILES) | IC50 [nM]
1 | CC1(C)CN(C2CCCC2)c2ccc(C(=O)N3CCN(c4ccc(CC(=O)O)cn4)CC3(C)C)nc21 [Example 167, 2-(6-(4-(1-cyclopentyl-3,3-dimethyl-2,3-dihydro-1H-pyrrolo[3,2-b]pyridine-5-carbonyl)-3,3-dimethylpiperazin-1-yl)pyridin-3-yl)acetic acid] | 500 to 10000
2 | CC1(C)CN(C2CCC(C#N)CC2)c2ccc(C(=O)N3CCN(c4ccc(CC(=O)O)cn4)CC3(C)C)nc21 (stereo not drawn) [Example 169, 2-(6-(4-(1-(4-cyanocyclohexyl)-3,3-dimethyl-2,3-dihydro-1H-pyrrolo[3,2-b]pyridine-5-carbonyl)-3,3-dimethylpiperazin-1-yl)pyridin-3-yl)acetic acid] | 500 to 10000
3 | CC1(C)CN(c2ccc(F)c(F)c2)c2ncc(C(=O)N3CCN(c4ccc(CC(=O)O)cn4)CC3(C)C)nc21 [Example 171, 2-(6-(4-(5-(3,4-difluorophenyl)-7,7-dimethyl-6,7-dihydro-5H-pyrrolo[2,3-b]pyrazine-2-carbonyl)-3,3-dimethylpiperazin-1-yl)pyridin-3-yl)acetic acid] | < 500
4 | CC1(C)CN(c2ccc(Cl)c(F)c2)c2ncc(C(=O)N3CCN(c4ccc(CC(=O)O)cn4)CC3(C)C)nc21 [Example 173, 2-(6-(4-(5-(4-chloro-3-fluorophenyl)-7,7-dimethyl-6,7-dihydro-5H-pyrrolo[2,3-b]pyrazine-2-carbonyl)-3,3-dimethylpiperazin-1-yl)pyridin-3-yl)acetic acid] | < 500
5 | CC1(C)CN(c2ccc(Cl)c(F)c2)c2ccc(C(=O)N3CCN(c4ccc(C(C)(C)C(=O)O)cn4)CC3(C)C)nc21 [Example 175, 2-(6-(4-(1-(4-chloro-3-fluorophenyl)-3,3-dimethyl-2,3-dihydro-1H-pyrrolo[3,2-b]pyridine-5-carbonyl)-3,3-dimethylpiperazin-1-yl)pyridin-3-yl)-2-methylpropanoic acid] | < 500
6 | CC1(C)CCN(c2ccc(Cl)c(F)c2)c2ccc(C(=O)N3CCN(c4ccc(CC(=O)O)cn4)CC3(C)C)nc21 [Example 177, 2-(6-(4-(5-(4-chloro-3-fluorophenyl)-8,8-dimethyl-5,6,7,8-tetrahydro-1,5-naphthyridine-2-carbonyl)-3,3-dimethylpiperazin-1-yl)pyridin-3-yl)acetic acid] | < 500
7 | CC1(C)CN(c2ccc(CC(=O)O)cn2)CCN1C(=O)c1cc2n(n1)C(C)(C)CCN2c1ccc(Cl)c(F)c1 [Example 179, 2-(6-(4-(4-(4-chloro-3-fluorophenyl)-7,7-dimethyl-4,5,6,7-tetrahydropyrazolo[1,5-a]pyrimidine-2-carbonyl)-3,3-dimethylpiperazin-1-yl)pyridin-3-yl)acetic acid] | > 10000
8 | Cc1cc(N2CCN(C(=O)c3cnc4c(n3)C(C)(C)CN4c3ccc(F)c(F)c3)C(C)(C)C2)nc(C)c1C(=O)O [Example 181, 6-(4-(5-(3,4-difluorophenyl)-7,7-dimethyl-6,7-dihydro-5H-pyrrolo[2,3-b]pyrazine-2-carbonyl)-3,3-dimethylpiperazin-1-yl)-2,4-dimethylnicotinic acid] | < 500
9 | Cc1ccc(N2CC(C)(C)c3nc(C(=O)N4CCN(c5cc(C)c(C(=O)O)c(C)n5)CC4(C)C)cnc32)cc1Cl [Example 189, 6-(4-(5-(3-chloro-4-methylphenyl)-7,7-dimethyl-6,7-dihydro-5H-pyrrolo[2,3-b]pyrazine-2-carbonyl)-3,3-dimethylpiperazin-1-yl)-2,4-dimethylnicotinic acid] | < 500
10 | Cc1cc(N2CCN(C(=O)c3cnc4c(n3)C(C)(C)CN4c3ccc(F)c(Cl)c3)C(C)(C)C2)nc(C)c1C(=O)O [Example 191, 6-(4-(5-(3-chloro-4-fluorophenyl)-7,7-dimethyl-6,7-dihydro-5H-pyrrolo[2,3-b]pyrazine-2-carbonyl)-3,3-dimethylpiperazin-1-yl)-2,4-dimethylnicotinic acid] | < 500
11 | CC1(C)CN(c2ccc(CC(=O)O)cn2)CCN1C(=O)c1cc2n(n1)C(C)(C)CN(c1ccc(Cl)c(F)c1)C2 [Example 195, 2-(6-(4-(5-(4-chloro-3-fluorophenyl)-7,7-dimethyl-4,5,6,7-tetrahydropyrazolo[1,5-a]pyrazine-2-carbonyl)-3,3-dimethylpiperazin-1-yl)pyridin-3-yl)acetic acid] | 500 to 10000
12 | CC1(C)CN(c2ccc(F)c(Cl)c2)c2ncc(C(=O)N3CCN(c4ccc(CC(=O)O)cn4)CC3(C)C)nc21 [Example 205, 2-(6-(4-(5-(3-chloro-4-fluorophenyl)-7,7-dimethyl-6,7-dihydro-5H-pyrrolo[2,3-b]pyrazine-2-carbonyl)-3,3-dimethylpiperazin-1-yl)pyridin-3-yl)acetic acid] | < 500
13 | Cc1cc(N2CCN(C(=O)c3cnc4c(n3)C3(CCCC3)CN4c3ccc(Cl)c(F)c3)C(C)(C)C2)nc(C)c1C(=O)O [Example 207, 6-(4-(5′-(4-chloro-3-fluorophenyl)-5′,6′-dihydrospiro[cyclopentane-1,7′-pyrrolo[2,3-b]pyrazine]-2′-carbonyl)-3,3-dimethylpiperazin-1-yl)-2,4-dimethylnicotinic acid] | < 500
14 | CC1(C)CN(CCc2ccc(F)cc2)c2ncc(C(=O)N3CCN(c4ccc(CC(=O)O)cn4)CC3(C)C)nc21 [Example 211, 2-(6-(4-(5-(4-fluorophenethyl)-7,7-dimethyl-6,7-dihydro-5H-pyrrolo[2,3-b]pyrazine-2-carbonyl)-3,3-dimethylpiperazin-1-yl)pyridin-3-yl)acetic acid] | 500 to 10000
15 | Cc1cc(N2CCN(C(=O)c3cnc4c(n3)C(C)(C)CN4CCc3ccc(F)cc3)C(C)(C)C2)nc(C)c1C(=O)O [Example 213] | 500 to 10000
16 | Cc1cc(N2CCN(C(=O)c3ccc4c(n3)C3(CN4c4ccc(Cl)c(F)c4)CC(C)(C)C3)C(C)(C)C2)nc(C)c1C(=O)O [Example 215, 6-(4-(1′-(4-chloro-3-fluorophenyl)-3,3-dimethyl-1′,2′-dihydrospiro[cyclobutane-1,3′-pyrrolo[3,2-b]pyridine]-5′-carbonyl)-3,3-dimethylpiperazin-1-yl)-2,4-dimethylnicotinic acid] | < 500

The remaining lines, values ahead:

Row | IC50 [nM] | Structure (SMILES)
17 | > 10000 | Cc1cc(N2CCN(C(=O)c3cnc4c(n3)C(C)(C)CN4C3CCCC3)C(C)(C)C2)nc(C)c1C(=O)O [Example 183, 6-(4-(5-cyclopentyl-7,7-dimethyl-6,7-dihydro-5H-pyrrolo[2,3-b]pyrazine-2-carbonyl)-3,3-dimethylpiperazin-1-yl)-2,4-dimethylnicotinic acid]
18 | < 500 | Cc1ccc(N2CC(C)(C)c3nc(C(=O)N4CCN(c5cc(C)c(C(=O)O)c(C)n5)CC4(C)C)cnc32)cc1F [Example 185, 6-(4-(5-(3-fluoro-4-methylphenyl)-7,7-dimethyl-6,7-dihydro-5H-pyrrolo[2,3-b]pyrazine-2-carbonyl)-3,3-dimethylpiperazin-1-yl)-2,4-dimethylnicotinic acid]
19 | < 500 | Cc1cc(N2CCN(C(=O)c3cnc4c(n3)C(C)(C)CN4c3cc(F)c(Cl)c(F)c3)C(C)(C)C2)nc(C)c1C(=O)O [Example 187, 6-(4-(5-(4-chloro-3,5-difluorophenyl)-7,7-dimethyl-6,7-dihydro-5H-pyrrolo[2,3-b]pyrazine-2-carbonyl)-3,3-dimethylpiperazin-1-yl)-2,4-dimethylnicotinic acid]
20 | < 500 | Cc1cc(N2CCN(C(=O)c3cnc4c(n3)C(C)(C)CN4c3ccc(C(F)(F)F)c(Cl)c3)C(C)(C)C2)nc(C)c1C(=O)O [Example 193, 6-(4-(5-(3-chloro-4-(trifluoromethyl)phenyl)-7,7-dimethyl-6,7-dihydro-5H-pyrrolo[2,3-b]pyrazine-2-carbonyl)-3,3-dimethylpiperazin-1-yl)-2,4-dimethylnicotinic acid]
21 | > 10000 | CC(C)CN1CC(C)(Cc2ccc(Cl)c(F)c2)c2ccc(C(=O)N3CCN(c4ccc(CC(=O)O)cn4)CC3(C)C)nc21 (stereo not drawn) [Example 197, 2-(6-(4-(3-(4-chloro-3-fluorobenzyl)-1-isobutyl-3-methyl-2,3-dihydro-1H-pyrrolo[2,3-b]pyridine-6-carbonyl)-3,3-dimethylpiperazin-1-yl)pyridin-3-yl)acetic acid]
22 | < 500 | Cc1ccc(N2CC(C)(C)c3nc(C(=O)N4CCN(c5ccc(CC(=O)O)cn5)CC4(C)C)cnc32)cc1F [Example 203, 2-(6-(4-(5-(3-fluoro-4-methylphenyl)-7,7-dimethyl-6,7-dihydro-5H-pyrrolo[2,3-b]pyrazine-2-carbonyl)-3,3-dimethylpiperazin-1-yl)pyridin-3-yl)acetic acid]
23 | < 500 | Cc1cc(N2CCN(C(=O)c3ccc4c(n3)C(C)(C)CN4c3ccc4c(c3)COC4)C(C)(C)C2)nc(C)c1C(=O)O [Example 209, 6-(4-(1-(1,3-dihydroisobenzofuran-5-yl)-3,3-dimethyl-2,3-dihydro-1H-pyrrolo[3,2-b]pyridine-5-carbonyl)-3,3-dimethylpiperazin-1-yl)-2,4-dimethylnicotinic acid]
24 | < 500 | CC1(C)CN(c2cc(F)c(F)c(F)c2)c2ncc(C(=O)N3CCN(c4ccc(CC(=O)O)cn4)CC3(C)C)nc21 [Example 217, 2-(6-(4-(7,7-dimethyl-5-(3,4,5-trifluorophenyl)-6,7-dihydro-5H-pyrrolo[2,3-b]pyrazine-2-carbonyl)-3,3-dimethylpiperazin-1-yl)pyridin-3-yl)acetic acid]
